# Laboratory results reported in US8652439B2, “Compositions of HSP60 peptides and viral antigens for vaccination and diagnosis” (priority 2005, dated 2014).
# Entries after “also recorded” stand apart in the source; their conditions may differ.
# Assays:
# [1] = test system: MCMV; assay: Immunization after MCMV challenge in combination with Gancyclovir; MCMV-DNA PCR in salivary glands; type: in vivo, BALB/c mice; conditions: day 30 after challenge; GCV i.p. with or without one immunization on day 6
# Procedure: DNA was extracted from naïve and infected spleens and salivary gland using QiAmp Tissue Kit (QIAGEN Inc. Chatsworth, Calif., USA), according to appropriate QiAmp protocols. DNA oligonucleotide primers were synthesized according to the published sequence of MCMV gB gene (Rapp et al., 1992). […]. This gB gene primer pair amplifying a 356 bp segment was found the most sensitive in previous studies (Palmon et al., 1996). For gene amplification, 1 μg of DNA sample was added to the reaction mixture containing 200 μM each dNTP, 100 pmol each primer, 1.0 mM MgSO4, 10 mM KCl, 10 mM (NH4)2SO4, 20 mM Tris-HCl (pH 8.8), 0.1% Triton X-100 and 2 U of vent polymerase (Biolabs) in a total reaction volume of 50 μl each. Samples were amplified for 30 cycles in an automated thermal cycler (Perkin Elmer Cetus, USA). Each cycle entailed denaturation at 94° C. for 60 sec, annealing at 68° C. for 90 sec and primer extension at 72° C. for 120 sec. PCR products were electrophoretically separated on 1.5% agarose gel, stained with ethidium bromide, and photographed. The lower limit of detection for this method under the experimental conditions was 5 femtograms of viral DNA corresponding to about 20 copies of the MCMV genome (Palmon et al., 1996).
# 3-week old BALB/c mice were challenged i.p. with 5×10^4 pfu of MCMV (day 0). On day 6, mice were immunized once with IFA alone, 89pep or p458-89pep emulsified in IFA, as described above. Mice were treated with 100 μg of the anti viral medication Gancyclovir (GCV, Roche, Basel, Switzerland) i.p. on days 1, 2, 3, 4, 8, 9, 10 and 11 after challenge. Mice were sacrificed on day 30 after challenge and MCMV-DNA was measured by a PCR assay in the salivary glands, as specified above (FIG. 14A).
# [2] = test system: MCMV; assay: Infectious MCMV titers in salivary gland of immunized mice after MCMV challenge (plaque assay); type: in vivo, BALB/c mice; conditions: for Infectious MCMV titer in salivary gland: immunized twice, peptides in IFA
# [3] = test system: salivary gland mononuclear cells; assay: IFNγ-positive salivary gland mononuclear cells 28 days after MCMV challenge of vaccinated mice; type: in vivo, BALB/c mice; conditions: 28 days after virus challenge of immunized mice; 8 hr 89pep stimulation
# [4] = test system: IFN-γ; assay: IFN-γ secretion of splenocytes from mice immunized with p15 conjugates, stimulated in vitro with p15; type: in vivo; conditions: spleens 10 days after immunization; p15 25 μg/ml, 3 days
# Procedure: (§1) Mice were immunized with the following peptides as described in Example 8 using the following peptides: p15 (SEQ ID NO:11), p32 (SEQ ID NO:13), Ec27-p15 ([…], SEQ ID NO:77), and Mock-p15 ([…], SEQ ID NO:80—the p431 peptide fused to p15).
# (§2) Spleens were harvested 10 days after the immunization and splenocytes were cultured with p15 (25 μg/ml) for 3 days. Cell proliferation and IFNγ levels in the supernatants of spleen cell cultures were measured. Results are the average of 3 independent proliferation experiments. Ec27-Ep15* and Ec27-Ep15** are two identical but independent groups in the same experiment.
# [5] = test system: splenocytes; assay: Proliferation of splenocytes from mice immunized with p15 conjugates, stimulated in vitro with p15; type: in vivo; conditions: spleens 10 days after immunization; p15 25 μg/ml, 3 days
# Procedure: as §1, §2
# [6] = test system: WNV; assay: Protective efficacy of immunization against WNV challenge (mortality); type: in vivo, BALB/c mice; conditions: for Mortality (% deaths) / Mortality (dead of total): 3 immunizations, 10^6 pfu WNV, 21 days post challenge, 5 experiments
# [7] = test system: serum from WNV-infected mice; assay: ELISA recognition of peptides by serum from WNV-infected mice; type: binding; conditions: peptide 1 μg/well; sera 1:40 dilution
# Procedure: (§3) ELISA tests were performed according to the method described by Martin et al (Martin et al, 2000) with slight modifications. Briefly, microtiter plates were coated and incubated overnight at 4° C. with 100 μl of the different peptides (1 μg/well) or WNV antigen diluted 1:700 in coating buffer (NaHCO3, pH=9.6). After incubation, the coating buffer was decanted and the plates were washed twice in PBS containing 0.05% Tween 20 and 0.2% sodium azide (washing buffer). After blocking for 1 h with a 200 μl/wen of PBS containing 0.05% Tween 20 and 2.5% nonfat dry milk, the plates were washed 4 times in washing buffer and 100 μl of IVIG-IL or mouse sera at 1:40 dilution were added to each well (2-4 wells per sample). Negative and positive controls of human or mouse sera were tested in each plate. […] The color intensity was measured by ELISA-reader (Dynatec MR 5000) at the absorbance of 405 nm.
# (§4) Next, it was examined whether the candidate epitope is recognized by a serum immunoglobulin pool taken from Israeli donors (IVIG-IL), which contains anti-WNV Abs. […] After blocking and washing, IVIG-IL was added at 1:40 dilution and binding was detected. […]
# [8] = test system: IVIG-IL (anti-WNV Abs); assay: ELISA recognition of peptides by IVIG-IL; type: binding, human; conditions: peptide 1 μg/well; IVIG-IL 1:40 dilution
# Procedure: as §3, §4
# [9] = test system: sera from WNV-exposed human subjects; assay: ELISA recognition of WNV peptides by human sera; type: binding; conditions: for Recognition by sera of WNV-exposed and unexposed human subjects: ELISA, peptide as antigen
# Procedure: Sera from WNV-exposed and non-exposed human subjects was assayed for antibodies recognizing the novel WNV peptide antigens, p15 (SEQ ID NO:11) and p17 (SEQ ID NO:21). FIG. 17 presents the results of an ELISA test in which the p15 and p17 served as the antigen, human sera were used as the primary antibody and HRP-conjugated anti-human Abs were used as the secondary antibody. RLU are the relative luminescence units produced by HRP activity on the luminal substrate.
# Sera S2 and S6 are from human that were not infected with WNV while sera S1, S3-S5 and S7 are from human that had history of WNV infection.
# [10] = test system: IFNγ; assay: IFNγ ELISA of spleen and salivary gland cell cultures after vaccination; type: in vivo, BALB/c mice; conditions: 10 days after single immunization; for IFNγ secretion of spleen cells stimulated in vitro with p458: 3 d stimulation with p458
# [11] = test system: IL-4; assay: IL-4 ELISA of spleen cell cultures after vaccination; type: in vivo, BALB/c mice; conditions: spleen cell cultures of immunized mice
# [12] = test system: P815 cells pulsed with the 89pep; assay: Cytotoxic T cell assay of spleen cell cultures after vaccination; type: in vivo, BALB/c mice; conditions: spleens 7 d after one immunization, 6 days re-stimulation with 89pep; P815 loaded with 89pep
# Procedure: The cytotoxic activity against the MCMV 89pep was assessed in a 4-h cytotoxic assay using the CytoTox 96 non-radioactive, colorimetric-based kit (Promega, Madison, Wis.), according to manufacturer instructions. This assay is based on the quantitative measurement of lactate dehydrogenase, a stable cytosolic enzyme that is released upon cell lysis. Spleen cell suspensions from immunized mice, prepared as described above, were re-stimulated in vitro for 6 days with 89pep (10 μg/ml) and rhIL-2 (25 IU/ml) from day 2. Target cells for the lysis assay were P815 cells (mastocytoma, H-2^d). P815 were either non-pulsed or pulsed with 89pep (1 μg/ml) for 2 h and then washed before incubation with effector cells. In all experiments shown, the spontaneous release was less than 25% of maximal release. Each point in a lysis assay represents the average of triplicate values. The range of the triplicates was within 5% of their mean.
# We also investigated whether the CD8^+IFNγ^+ cells induced by the p458-89pep were able to lyse specifically 89pep-loaded target cells. Mice were immunized once and 7 d later, spleens were harvested and re-stimulated with 89pep. Six days later, lytic activity was assayed on P815 (H-2^d) loaded with the 89pep. […]
# [13] = test system: IFNγ-positive spleen cells; assay: FACS intracellular IFNγ staining of spleen cells after vaccination; type: in vivo, BALB/c mice; conditions: 7 days after one immunization; 5 days re-stimulation with 89pep
# Procedure: For phenotypic analysis, spleen and salivary gland mononuclear cells of MCMV-infected and naïve mice were cultured as described above and were stained for CD8 and CD4, IFNγ and IL-5 using directly-labeled antibodies (PharMingen, San Diego, Calif.). Intracellular cell staining (ICCS) for IFNγ, IL-4 and IL-5 was performed using PharMingen's Cytofix/Cytoperm Plus kit with GolgiPlug (containing Brefeldin A) according to the manufacturer's instructions. Briefly, GolgiPlug was added to the 8 h-incubated immune cell cultures (established as described above, with or w/o peptide stimulation). After the additional 6 h of incubation in the incubator cells (minimum 10^6 per sample) were harvested, washed in PBS supplemented with 2% FBS and 0.09% Sodium azide, and incubated in 50 μl of FC blocker, labeled with anti-CD4 and anti-CD8 surface markers. Then cells were fixed, permeabilized and treated with anti-IFNγ, anti-IL-4 or anti-IL-5 antibodies for intracellular cytokine detection. Stained cells were immediately analyzed on a FACSCalibur flow cytometer (Becton-Dickinson, Mansfield, Mass.) and 50,000 to 100,000 events/sample were acquired and analyzed with CellQuest software.
# We characterized the nature of cells secreting the IFNγ by flow cytometry. Mice were immunized once with the different peptides and an additional group was infected with MCMV. Seven days later, spleens were removed and cell suspensions were cultured for 5 days with or without 89pep. […] Infection with MCMV and re-stimulation with 89pep induced the highest percentage of IFNγ^+CD8^+ T cells (FIG. 5B). Staining was specific to IFNγ since no CD8^+IL-4^+ or CD8^+IL-5^+ cells were observed.
# [14] = test system: MCMV gB DNA; assay: PCR of MCMV gB DNA in salivary glands of immunized, MCMV-challenged mice; type: in vivo, BALB/c mice; conditions: day 28 after MCMV challenge
compound,measurement,setting,value
"Nc1nc(O)c2ncn(COC(CO)CO)c2n1 [GCV, Gancyclovir]",CMV load at the salivary gland (MCMV-DNA PCR),[1],did not suffice for therapy
EGDEATGANI-KVALEAYPHFHPTNL (EGDEATGANIKVALEAYPHFHPTNL) [control-89pep],Effect of immunization on salivary gland viral load,[2]; day 28 after MCMV challenge,did not affect the viral load
FNNFTVSFWLRVPKVSASHLEYPHFMPTNL [TTp30-89pep],Effect of immunization on salivary gland viral load,[2]; day 28 after MCMV challenge,reduced viral load on day 28 by two fold; also recorded: failed to eliminate infectious virus on day 28; also recorded: contained infectious virus on day 28 post challenge
same,Effect of immunization on salivary gland viral load,[2]; days 14 and 21 after MCMV challenge,did not affect viral load on days 14 and 21
same,CD8+IFNγ+ cells in salivary gland,[3],CD8^+IFNγ^+ cells were observed
KKARVEDALHATRAAVEEGVLVTVNPFVSVATANS [Ec27-p15],IFN-γ secretion of spleen cells in the presence of p15,[4],more effective than p15 alone
same,Proliferation of spleen cells in the presence of p15,[5],more effective than p15 alone
LVTVNPFVSVATANS [p15],Mortality (% deaths),[6],(53%)
same,Mortality (dead of total),[6],8/15
same,Protective efficacy against WNV challenge,[6]; summary of 5 experiments,slight protective efficacy
same,Recognition by serum from WNV-infected mice,[7],specifically recognized
same,Recognition by IVIG-IL,[8],recognized by IVIG-IL
same,Recognition by sera of WNV-exposed and unexposed human subjects,[9],specifically recognized by WNV-exposed sera and not by sera from unexposed subjects
same,Recognition by sera from Dengue-infected humans,[9]; data not shown,did not recognize
NEDQKIGIEIIKRALKI [p458],IFNγ secretion of spleen cells stimulated in vitro with p458,[10],high levels of IFNγ
same,IL-4 levels after Con-A stimulation in vitro,[11],184 pg/mL
same,Mortality (% deaths),[6],(57%)
same,Mortality (dead of total),[6],4/7
NEDQKIGIEIIKRALKIYPHFHPTNL [p458-89pep],Effect of immunization on salivary gland viral load,[2]; day 28 after MCMV challenge,showed no infectious MCMV in the salivary gland
same,Infectious MCMV titer in salivary gland,[2]; day 28 after MCMV challenge,< 2 log10 pfu/0.1 g
same,IFNγ secretion of spleen cells stimulated in vitro with p458,[10],high levels of IFNγ
same,IFNγ secretion of spleen cells re-stimulated in vitro with 89pep,"[10]; 3 d stimulation, 89pep 10 μg/ml",significantly higher (p<0.05) levels of IFNγ
same,CMV load at the salivary gland (MCMV-DNA PCR),[1],reduced viral load to undetectable levels
same,IL-4 levels after Con-A stimulation in vitro,[11],317 pg/mL
same,89pep-specific lytic (CTL) activity,[12],lysed the target cells
same,IFNγ+CD4+ T cells in spleen cell cultures,[13],no IFNγ^+CD4^+ T cells
same,IFNγ+CD8+ T cells in spleen cell cultures,[13],induced IFNγ^+CD8^+ T cells
same,MCMV gB PCR product in salivary glands,[14],failed to reveal any gB PCR product
same,CD8+IFNγ+ cells in salivary gland,[3],larger than that of the other groups
YIVVGRGEQQINHHWHK [p17],Recognition by sera of WNV-exposed and unexposed human subjects,[9],specifically recognized by WNV-exposed sera and not by sera from unexposed subjects
YPHFHPTNL [89pep],Effect of immunization on salivary gland viral load,[2]; day 28 after MCMV challenge,marginal advantage compared to IFA-immunized mice; also recorded: contained infectious virus on day 28 post challenge
same,Infectious MCMV titer in salivary gland,[2]; day 28 after MCMV challenge,4.5 log10 pfu/0.1 g
same,CMV load at the salivary gland (MCMV-DNA PCR),[1],did not affect CMV load
same,IL-4 levels after Con-A stimulation in vitro,[11],146 pg/mL
same,89pep-specific lytic (CTL) activity,[12],No lytic activity was observed
same,IFNγ+CD8+ T cells in spleen cell cultures,[13],very few IFNγ^+CD8^+ T cells
same,CD8+IFNγ+ cells in salivary gland,[3],CD8^+IFNγ^+ cells were observed
